Measured values published in PubChem BioAssay (NCI).
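Here, GI50 denotes the concentration required for 50% inhibition of growth. TGI: concentration producing complete growth inhibition.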

Assays:
Assay in all cases: NCI-60 cell line screen, 384-well format
A498 renal = tested on: A498 renal
HOP-92 NSCLC = tested on: HOP-92 NSCLC
MALME-3M melanoma = tested on: MALME-3M melanoma
MCF7 breast = tested on: MCF7 breast
NCI-H460 NSCLC = tested on: NCI-H460 NSCLC
OVCAR-3 ovarian = tested on: OVCAR-3 ovarian
OVCAR-5 ovarian = tested on: OVCAR-5 ovarian
SK-MEL-28 melanoma = tested on: SK-MEL-28 melanoma
SK-MEL-5 melanoma = tested on: SK-MEL-5 melanoma
SK-OV-3 ovarian = tested on: SK-OV-3 ovarian
SR leukemia = tested on: SR leukemia
UACC-257 melanoma = tested on: UACC-257 melanoma
UO-31 renal = tested on: UO-31 renal

## COc1cc2nc(C)nc(N[C@H](C)c3cc(N)cc(C(F)(F)F)c3)c2cc1O[C@H]1CCOC1
A498 renal
  GI50: 8.87 µM
  TGI: 21.3 µM
HOP-92 NSCLC
  GI50: 0.0895 µM
  TGI: 5.19 µM
MALME-3M melanoma
  GI50: 8.63 µM
  TGI: 21.1 µM
MCF7 breast
  GI50: 11.3 µM
  TGI: 23.5 µM
NCI-H460 NSCLC
  GI50: 12 µM
  TGI: 24.6 µM
OVCAR-3 ovarian
  GI50: 6.28 µM
  TGI: 20.1 µM
OVCAR-5 ovarian
  GI50: 11 µM
  TGI: 23.1 µM
SK-MEL-28 melanoma
  GI50: 12.6 µM
  TGI: 25.2 µM
SK-MEL-5 melanoma
  GI50: 3.15 µM
  TGI: 17.1 µM
SK-OV-3 ovarian
  GI50: 12.5 µM
  TGI: 25.1 µM
SR leukemia
  GI50: 1.54 µM
  TGI: 8.64 µM
UACC-257 melanoma
  GI50: 4.86 µM
  TGI: 16.6 µM
UO-31 renal
  GI50: 12.2 µM
  TGI: 24.7 µM
